Laboratory results taken from paper PMC7004409 (PLoS Pathogens, 2020).

How the values were obtained:
Format in all cases: biochemical
[1] = target: T1, HIV-1 GagΔMA (GagΔMAΔp1Δp6) (Human immunodeficiency virus type 1 (NEW YORK-5 ISOLATE), UniProt P12493); details: GT25 oligo, pH 6
T1 construct: gene gag; Gag lacking MA, p1 and p6 (CA-SP1-NC); SUMO-tag purification, E. coli

[2] = target: T2, SIV GagΔMA (Simian immunodeficiency virus (MM251 ISOLATE), UniProt P05893); details: 50 mM Tris pH 8, 100 mM NaCl, GT25 oligo, dialysis, 22 °C
T2 construct: gene gag; Gag lacking MA; SUMO-tag purification

[3] = target: T3, HIV-2 GagΔMA (Human immunodeficiency virus type 2 (ISOLATE ROD), UniProt P04590); details: 50 mM Tris pH 8, 100 mM NaCl, GT25 oligo, dialysis, 22 °C
T3 construct: gene gag; Gag lacking MA; SUMO-tag purification

[4] = target: T4, BIV GagΔMA (Bovine immunodeficiency virus R29, UniProt P19558); details: 50 mM MES pH 6.5, 100 mM NaCl, GT50 oligo, dilution, 22 °C
T4 construct: gene gag; Gag lacking MA; SUMO-tag purification

[5] = target: T5, FIV GagΔMA (Feline immunodeficiency virus (isolate Petaluma), UniProt P16087); details: 50 mM Bis-Tris propane, 150 mM NaCl, GT50 oligo, dilution, 22 °C
T5 construct: gene gag; Gag lacking MA; SUMO-tag purification

| Structure (SMILES) | fold increase of round VLPs at 10 μM [1] [fold] | VLP number with / without IP6 [2] | VLP number with / without IP6 [3] | VLP number with / without IP6 [4] | VLP number with / without IP6 [5] |
| --- | --- | --- | --- | --- | --- |
| O=P(O)(O)O[C@@H]1[C@@H](OP(=O)(O)O)[C@H](OP(=O)(O)O)[C@H](O)[C@H](OP(=O)(O)O)[C@H]1OP(=O)(O)O [IP5] | 1000 |  |  |  |  |
| O=P(O)(O)O[C@H]1[C@H](OP(=O)(O)O)[C@@H](OP(=O)(O)O)[C@H](OP(=O)(O)O)[C@@H](OP(=O)(O)O)[C@H]1OP(=O)(O)O [IP6] |  | in the presence of IP6, spherical VLP assembly consistent with an immature lattice was observed | in the presence of IP6, spherical VLP assembly consistent with an immature lattice was observed | in the presence of IP6, spherical VLP assembly consistent with an immature lattice was observed | in the presence of IP6, spherical VLP assembly consistent with an immature lattice was observed |
